4 molecules from patent publication US20260285849A1, “METHYLOPHIOPOGONONE A DERIVATIVE, AND PREPARATION AND USE THEREOF” (INSTITUTE OF MATERIA MEDICA, CHINESE ACADEMY OF MEDICAL …, priority 2022, published 2026) can be followed below.

Like-named read-outs stand apart in the source and are kept apart here.

Type in all cases: in vivo
The test system of test [1] is mice with hypertensive heart disease induced by angiotensin II (AngII). Set-up: unit not given here. Here is the method: After male C57BL/6 mice were acclimated to the environment, they were randomly divided into 10 groups, namely the blank control group, the AngII model group, the AngII+telmisartan 10 mg/kg positive control group, the AngII+spironolactone 20 mg/kg positive control group, the AngII+Formula I (0.1, 0.5, 2 mg/kg) groups, and the AngII+Formula II (0.1, 0.5, 2 mg/kg) groups. The mice in the drug administration groups were intragastrically administered the corresponding doses of Formula I and Formula II compounds once a day at the same time. The mice in the positive control groups were intragastrically administered the corresponding doses of telmisartan and spironolactone once a day. The mice in the blank control group and the model group were given the same amount of solvent (0.5% CMC-Na solution). The administration volume was 10 mL/kg, and the administration was continuous for 14 days. From the 1st to the 13th day of drug administration, AngII modeling was carried out. The mice in the blank control group were subcutaneously injected with normal saline, and the mice in the other groups were subcutaneously injected with 1.44 mg/kg of AngII (modeling was carried out 2 h after drug administration), for a total of 13 times. […] Three mice were randomly selected from each group. The mice were placed in a fixator to expose the tail. The fixator was placed on a heating pad to maintain the normal body temperature of the mice. The root of the tail was passed through a pressurized tail cuff and fixed. Inflation and pressurization were started, and a measuring instrument was used to measure the systolic blood pressure (SBP). The blood pressure index of each animal was continuously measured 5 times, and the average value was taken.

The test system is the same in test [2]. Put plainly: AngII-induced hypertensive heart disease mouse model: echocardiogram. Conditions: left ventricle, day 14. As to the method:
After male C57BL/6 mice were acclimated to the environment, they were randomly divided into 10 groups, namely the blank control group, the AngII model group, the AngII+telmisartan 10 mg/kg positive control group, the AngII+spironolactone 20 mg/kg positive control group, the AngII+Formula I (0.1, 0.5, 2 mg/kg) groups, and the AngII+Formula II (0.1, 0.5, 2 mg/kg) groups. The mice in the drug administration groups were intragastrically administered the corresponding doses of Formula I and Formula II compounds once a day at the same time. The mice in the positive control groups were intragastrically administered the corresponding doses of telmisartan and spironolactone once a day. The mice in the blank control group and the model group were given the same amount of solvent (0.5% CMC-Na solution). The administration volume was 10 mL/kg, and the administration was continuous for 14 days.
From the 1st to the 13th day of drug administration, AngII modeling was carried out. The mice in the blank control group were subcutaneously injected with normal saline, and the mice in the other groups were subcutaneously injected with 1.44 mg/kg of AngII (modeling was carried out 2 h after drug administration), for a total of 13 times.
Echocardiogram detection: On the 14th day of drug administration (after 13 times of AngII modeling), 5 animals were randomly selected from each group. After anesthesia and fixation, the chest hair was shaved, and a small amount of coupling agent was applied to the chest. The Vevo 770 Imaging System, a small animal ultrasonic real-time imaging system, was used for echocardiogram examination. All echocardiogram indexes of the animals were continuously measured for 3 cardiac cycles, and the average value was taken.

The test system is the same in test [3]. Put plainly: AngII-induced hypertensive heart disease mouse model: serum cAMP (ELISA). As to the method: (§1) After male C57BL/6 mice were acclimated to the environment, they were randomly divided into 10 groups, namely the blank control group, the AngII model group, the AngII+telmisartan 10 mg/kg positive control group, the AngII+spironolactone 20 mg/kg positive control group, the AngII+Formula I (0.1, 0.5, 2 mg/kg) groups, and the AngII+Formula II (0.1, 0.5, 2 mg/kg) groups. The mice in the drug administration groups were intragastrically administered the corresponding doses of Formula I and Formula II compounds once a day at the same time. The mice in the positive control groups were intragastrically administered the corresponding doses of telmisartan and spironolactone once a day. The mice in the blank control group and the model group were given the same amount of solvent (0.5% CMC-Na solution). The administration volume was 10 mL/kg, and the administration was continuous for 14 days. From the 1st to the 13th day of drug administration, AngII modeling was carried out. The mice in the blank control group were subcutaneously injected with normal saline, and the mice in the other groups were subcutaneously injected with 1.44 mg/kg of AngII (modeling was carried out 2 h after drug administration), for a total of 13 times. Detection of serum CAMP level: After the experiment, the animals were sacrificed by enucleation to obtain blood. The blood was left to stand at room temperature for 2 hours, and then centrifuged at 3500 rpm for 20 minutes to separate the serum. The content of serum cAMP was determined according to the instructions of the ELISA kit.

Test [4] has the same test system. Put plainly: AngII-induced hypertensive heart disease mouse model: serum cTn-T and CK-MB (ELISA). Here is the method: as §1, with “biomarkers of myocardial injury:” for “CAMP level:”, “contents” for “content”, “cardiac troponin cTn-T and myocardial enzyme CK-MB were” for “cAMP was”
Where [5] appears, read: 0 d (before administration), 0.1 mg/kg group.
The mark [6] stands for this setting: 0 d (before administration), 0.5 mg/kg group.
Setting [7] is: 0 d (before administration), 2 mg/kg group.
Setting [8] is: 7 d, 0.1 mg/kg intragastric once a day, AngII 1.44 mg/kg s.c.
Setting [9] is: 7 d, 0.5 mg/kg intragastric once a day, AngII 1.44 mg/kg s.c.
Setting [10] is: 7 d, 2 mg/kg intragastric once a day, AngII 1.44 mg/kg s.c.
Setting [11] is: 14 d, 0.1 mg/kg intragastric once a day, AngII 1.44 mg/kg s.c.
[12] abbreviates: 14 d, 0.5 mg/kg intragastric once a day, AngII 1.44 mg/kg s.c.
[13] abbreviates: 14 d, 2 mg/kg intragastric once a day, AngII 1.44 mg/kg s.c.
The mark [14] stands for this setting: 0.1 mg/kg intragastric once a day.
Where [15] appears, read: 0.5 mg/kg intragastric once a day.
[16] abbreviates: 2 mg/kg intragastric once a day.
[17] abbreviates: 0.1 mg/kg intragastric once a day 14 days.
The mark [18] stands for this setting: 0.5 mg/kg intragastric once a day 14 days.
[19] abbreviates: 2 mg/kg intragastric once a day 14 days.
Where [20] appears, read: 20 mg/kg intragastric once a day.
[21] abbreviates: 20 mg/kg intragastric once a day 14 days.
[22] abbreviates: 10 mg/kg intragastric once a day.
The mark [23] stands for this setting: 10 mg/kg intragastric once a day 14 days.

Take `Cc1c(O)cc(O)c2c(=O)c(Cc3ccc4c(c3)OCO4)coc12` [Formula II, 3-(benzo[d][1,3]dioxol-5-ylmethyl)-5,7-dihydroxy-8-methyl-4H-chromen-4-one]: the SBP worked out at 100.30 ± 7.37 in test [1] (setting [5]); 102.43 ± 8.41 in test [1] (setting [6]); 101.27 ± 12.13 in test [1] (setting [7]); 105.73 ± 6.00 in test [1] (setting [8]); 106.07 ± 1.22 in test [1] (setting [9]); 110.93 ± 5.78 in test [1] (setting [10]). For the same molecule, the figures for the SBP in test [1] (setting [11]), in test [1] (setting [12]) and in test [1] (setting [13]) were 110.13 ± 3.51, 113.93 ± 3.51 and 108.27 ± 7.29, respectively. Besides, the results for the “Post-diastolic posterio rwall thickness” value in test [2] (setting [14]), in test [2] (setting [15]) and in test [2] (setting [16]) were 0.72 ± 0.08 mm, 0.69 ± 0.06 mm and 0.72 ± 0.06 mm, respectively. For the same molecule, the “Posterior wall thickness in systole” value in test [2] (setting [14]) is listed as 0.91 ± 0.10 mm; in test [2] (setting [15]), 0.87 ± 0.04 mm; in test [2] (setting [16]) it was 0.82 ± 0.11 mm. Besides, the cAMP worked out at 24.81 ± 1.63 nmol/L in test [3] (setting [17]), 26.38 ± 1.81 nmol/L in test [3] (setting [18]) and 24.42 ± 2.07 nmol/L in test [3] (setting [19]). Also, the CK-MB in test [4] (setting [17]) is on record as 15.36 ± 2.41 ng/mL; in test [4] (setting [18]), 14.07 ± 1.33 ng/mL; in test [4] (setting [19]) it was 13.39 ± 2.57 ng/mL. For the same molecule, the values for the cTn-T in test [4] (setting [17]), in test [4] (setting [18]) and in test [4] (setting [19]) were 153.56 ± 13.05 ng/L, 145.15 ± 15.79 ng/L and 136.64 ± 18.24 ng/L, respectively.
For the molecule `O=c1c(Cc2ccc3c(c2)OCO3)coc2cc(O)cc(O)c12` [Formula I], the SBP in test [1] (setting [5]) came out at 102.13 ± 4.30; in test [1] (setting [6]), 109.70 ± 5.67; in test [1] (setting [7]) it was 104.93 ± 9.21; in test [1] (setting [8]) it was 121.33 ± 3.19; in test [1] (setting [9]), 109.80 ± 4.50; in test [1] (setting [10]) it was 107.73 ± 6.53. The results for the SBP in test [1] (setting [11]), in test [1] (setting [12]) and in test [1] (setting [13]) were 107.60 ± 9.81, 105.13 ± 7.10 and 109.20 ± 5.19, respectively. The “Post-diastolic posterio rwall thickness” value in test [2] (setting [14]) is recorded as 0.79 ± 0.09 mm; in test [2] (setting [15]) it was 0.64 ± 0.02 mm; in test [2] (setting [16]), 0.67 ± 0.08 mm. Further, the entries for the “Posterior wall thickness in systole” value in test [2] (setting [14]), in test [2] (setting [15]) and in test [2] (setting [16]) were 0.90 ± 0.06 mm, 0.87 ± 0.11 mm and 0.90 ± 0.16 mm, respectively. In addition, the cAMP is recorded as 27.73 ± 3.03 nmol/L in test [3] (setting [17]), 27.42 ± 1.12 nmol/L in test [3] (setting [18]) and 29.04 ± 5.17 ^ nmol/L in test [3] (setting [19]). Moreover, the CK-MB in test [4] (setting [17]) was determined as 15.73 ± 1.79 ng/mL; in test [4] (setting [18]), 15.17 ± 1.63 ng/mL; in test [4] (setting [19]), 15.72 ± 1.89 ng/mL. The cTn-T in test [4] (setting [17]) came to 167.25 ± 24.56 ng/L; in test [4] (setting [18]) it was 165.79 ± 23.78 ng/L; in test [4] (setting [19]), 164.52 ± 19.68 ng/L.
In the case of `CC(=O)S[C@@H]1CC2=CC(=O)CC[C@]2(C)[C@H]2CC[C@@]3(C)[C@@H](CC[C@@]34CCC(=O)O4)[C@H]12` [Spironolactone, reference compound], the SBP in test [1] (0 d (before administration), 20 mg/kg group) is 106.13 ± 0.81. The SBP in test [1] (7 d, 20 mg/kg intragastric once a day, AngII 1.44 mg/kg s.c.) was determined as 109.73 ± 6.81. In test [1] (14 d, 20 mg/kg intragastric once a day, AngII 1.44 mg/kg s.c.), this molecule had an SBP of 109.70 ± 4.20. In test [2] (setting [20]), the “Post-diastolic posterio rwall thickness” value was found to be 0.81 ± 0.07 mm and the “Posterior wall thickness in systole” value came to 1.01 ± 0.08 mm. In addition, the cAMP in test [3] (setting [21]) is recorded as 29.34 ± 3.04 ^ nmol/L. In test [4] (setting [21]), the CK-MB was 18.86 ± 1.40 ^ ng/mL and the cTn-T is recorded as 169.17 ± 21.95 ng/L.
For `CCCc1nc2c(C)cc(-c3nc4ccccc4n3C)cc2n1Cc1ccc(-c2ccccc2C(=O)O)cc1` [Telmisartan, reference compound], the SBP in test [1] (0 d (before administration), 10 mg/kg group) is on record as 104.13 ± 3.56; in test [1] (7 d, 10 mg/kg intragastric once a day, AngII 1.44 mg/kg s.c.), 91.20 ± 6.35^###&; in test [1] (14 d, 10 mg/kg intragastric once a day, AngII 1.44 mg/kg s.c.), 100.47 ± 7.68. For the same molecule, the “Post-diastolic posterio rwall thickness” value in test [2] (setting [22]) is recorded as 0.65 ± 0.07 mm. Moreover, the “Posterior wall thickness in systole” value in test [2] (setting [22]) worked out at 0.79 ± 0.16 mm. This molecule also came in with a cAMP in test [3] (setting [23]) of 25.18 ± 1.10 nmol/L. The molecule also gave a CK-MB in test [4] (setting [23]) of 12.72 ± 1.09 ng/mL. In addition, in test [4] (setting [23]), the cTn-T was 134.07 ± 17.50 ng/L.
